PubChem BioAssay (NCI)
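Results reflect a 48-hour exposure of cells in 96-well plates to compound at five concentrations. Here, GI50 denotes the concentration required for 50% inhibition of growth. Definition used: TGI = concentration required for complete inhibition of growth.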

Tests used:
Assay in all cases: DTP human tumour cell line panel, 48 h
SK-OV-3 ovarian = system: SK-OV-3 ovarian
MOLT-4 leukemia = system: MOLT-4 leukemia
KM20L2 colon = system: KM20L2 colon
NCI-H226 lung = system: NCI-H226 lung
SR leukemia = system: SR leukemia
EKVX NSCLC = system: EKVX NSCLC
DMS 273 small cell lung = system: DMS 273 small cell lung

Row | SMILES | TGI (SK-OV-3 ovarian) | TGI (MOLT-4 leukemia) | TGI (KM20L2 colon) | TGI (NCI-H226 lung) | TGI (SR leukemia) | TGI (EKVX NSCLC) | TGI (DMS 273 small cell lung) | GI50 (SK-OV-3 ovarian) | GI50 (MOLT-4 leukemia) | GI50 (KM20L2 colon) | GI50 (NCI-H226 lung) | GI50 (SR leukemia) | GI50 (EKVX NSCLC) | GI50 (DMS 273 small cell lung)
1 | CCCCCCC(=O)CC(=O)C(=O)Nc1ccccc1C | > 100 µM | > 100 µM | > 100 µM | > 100 µM | > 100 µM | > 100 µM | > 100 µM |  |  |  |  |  |  | 
2 | CCOc1cc[n+](C(=C=[N-])C#N)cc1 | > 100 µM | > 100 µM | > 100 µM | > 100 µM | > 100 µM | > 100 µM | > 100 µM |  |  |  |  |  |  | 
3 | O=S1Cc2ccccc2CSS1 (centres undefined) | > 100 µM | 52.1 µM | 41.9 µM | 55.4 µM | 51.2 µM | 53.9 µM | 24.1 µM |  |  |  |  |  |  | 
4 | COc1c(OC2OC(CO)C(O)C(O)C2O)cc2c(c1OC)-c1ccc(OC)c(=O)cc1[C@@H](NC(C)=O)CC2 (some centres undefined) | > 100 µM | > 100 µM | > 100 µM | > 100 µM | > 100 µM | > 100 µM | > 100 µM |  |  |  |  |  |  | 
5 | CCOc1ccccc1NC(=O)C(=O)c1c(O)c2ccc(O)cc2oc1=O | > 100 µM | > 100 µM | > 100 µM | > 100 µM | > 100 µM | > 100 µM | > 100 µM |  |  |  |  |  |  | 
6 | N#CC12CC3(CCC1CCC1(C2)OCCO1)OCCO3 (centres undefined) | > 100 µM | > 100 µM | > 100 µM | > 100 µM | > 100 µM | > 100 µM | > 100 µM |  |  |  |  |  |  | 
7 | Cc1c(C(=O)Nc2ccc(Cl)cc2)nc(N)nc1-c1cccc(Cl)c1 | > 100 µM | > 100 µM | > 100 µM | > 100 µM | > 100 µM | > 100 µM | > 100 µM |  |  |  |  |  |  | 
8 | CC1=C(C(=O)NCc2ccccc2)C(c2ccccc2O)C(C(=O)NCc2ccccc2)=C(C)N1 | 64.9 µM | > 100 µM | 37 µM | 30.8 µM | > 65.9 µM | 45.6 µM | 31.2 µM |  |  |  |  |  |  | 
9 | CC(=O)N1CCN(C=S)CC1 | > 100 µM | > 100 µM | > 100 µM | > 100 µM | > 100 µM | > 100 µM | > 100 µM |  |  |  |  |  |  | 
10 | CN(C)c1ccc(/C=c2\sc3nnc(Cc4ccccc4)n3c2=O)cc1 | > 100 µM | > 100 µM | > 100 µM | > 100 µM | > 100 µM | > 100 µM | > 100 µM | > 100 µM | > 100 µM | > 100 µM | > 100 µM | > 100 µM | > 100 µM | > 10 µM
11 | CCC12C=CCN3CCC4(C(=C(C(=O)OC)C1)Nc1ccccc14)[C@H]32 (some centres undefined) | 49.7 µM | 93 µM | 47.6 µM | 86.7 µM | 34.8 µM | > 100 µM | 42.8 µM |  |  |  |  |  |  | 
